Experimental data published in patent US20240041767A1, “Mitochondria-Enriched Extracellular Vesicles” (Duquesne University of the Holy Spirit, priority 2022, published 2024).

Columns and labels:
recipient hCMEC/D3 BECs = assay: Uptake of MitoT-red-EVs into recipient hCMEC/D3 cells, flow cytometry; format: cell-based, human; settings: cells pre-stained with 100 nM MitoT-red for 30 min
Description: Uptake of Mitotracker-labeled naïve and mito-EVs into the recipient hCMEC/D3 cells (isolation of mitochondria-labeled naïve and mito-EVs) hCMEC/D3 BECs and NIH/3T3 fibroblasts were cultured in T175 flasks to confluency. The complete growth medium was removed and cells were washed with 1× PBS. Cells were treated with 100 nM MitoTracker deep red (MitoT-red) diluted in serum-free medium for 30 min in a 37° C. humidified incubator, and following that, the cells were washed with 1× PBS. For naïve EVs, cells were incubated with serum-free medium for 48 h, whereas for mito-EVs, cells were incubated with serum-free medium containing 10 μM Resveratrol for 48 h. Post-incubation, the conditioned medium was collected into polystyrene centrifuge tubes. […] The EV protein content in MitoT-red-sEVs and MitoT-red-m/lEVs were determined using MicroBCA assay, and the samples were stored at −80° C. until further use.
Uptake of hCMEC/D3 BEC- and NIH/3T3 fibroblast-derived MitoT-red-EVs into recipient hCMEC/D3 cells using flow cytometry hCMEC/D3 BECs (P31) were seeded in a 48-well plate at a seeding density of 50,000 cells/well in complete growth medium and cultured for 48 hours in a humidified incubator at 37° C. […] For each sample, an aliquot of a 100 μL cell suspension was analyzed on an Attune N×T Flow cytometer and 10,000 events were recorded in FSC vs. SSC plots. […]

PGC-1α [1] = assay: PGC-1α protein expression by western blotting in Resveratrol-treated hCMEC/D3 BECs; format: cell-based, human; settings: hCMEC/D3 cells
Description: (§1) Measurement of PGC-1α expression using western blotting (Activation of hCMEC/D3 brain endothelial cells and NIH/3T3 fibroblasts with Resveratrol and preparation of cell lysate for western blotting) hCMEC/D3 brain endothelial cells (BECs) and NIH/3T3 fibroblasts were seeded in a 24-well plate at 100,000 cells/well-seeding density in complete growth medium and cultured for 48 hours in a humidified incubator at 37° C. The cells were treated with different concentrations of Resveratrol ranging from 0.1 to 50 μM in complete growth medium for 24 h. Untreated cells were incubated with a complete growth medium and used as the control for the treatment groups. Post-treatment, the cells were washed with 1× PBS, and the cell suspension was collected in centrifuge tubes. The cell suspension was centrifuged at 300×g for 10 min at 4° C., washed with 1× PBS, and the cell pellet was lysed with 1× RIPA buffer containing 3 μg/mL aprotinin. The total protein concentration in the cell lysates was measured using a BCA assay.
(§2) Detection of PGC1α protein expression in hCMEC/D3 BECs and NIH/3T3 fibroblasts using western blotting A 40 μg cell lysate of untreated and Resveratrol treated hCMEC/D3 BECs and NIH/3T3 fibroblasts were mixed with 4× laemmli buffer and distilled water. The mixture was heated at 95° C. for 5 min using a heating block (Thermo Scientific). Denatured samples and standard molecular weight markers (ladder, 250-25 kD) were separated on a 4-10% gradient sodium dodecyl sulfate polyacrylamide gel at 120 V for 90 min using a PowerPac Basic setup (Bio-Rad Laboratories, Inc.). The gel was washed with deionized water for 30 min, and the proteins were transferred from the gel to a 0.45 μm nitrocellulose membrane using a transfer assembly (Bio-Rad Laboratories, Inc.) at 75 V and 300 mA for 90 min. Following that, the membrane was washed with tris-buffered saline pH 7.4 containing 1% tween 20 (T-TBS) for 45 min and blocked with Intercept blocking buffer (Li-COR Inc., Lincoln, NE) for an hour at room temperature. […]

PGC-1α [2] = assay: PGC-1α protein expression by western blotting in Resveratrol-treated NIH/3T3 fibroblasts; format: cell-based, mouse; settings: NIH/3T3 cells, 24 h, vs untreated cells
Description: as §1, §2

C[N+]1=C(/C=C/C=C/C=C2\N(Cc3ccc(CCl)cc3)c3ccccc3C2(C)C)C(C)(C)c2ccccc21.[Cl-] [MitoT-red]
MitoT+ve cells, positive control (recipient hCMEC/D3 BECs): about 77%

Oc1ccc(C=Cc2cc(O)cc(O)c2)cc1 [Resveratrol]
PGC-1α and GAPDH protein expression (PGC-1α [1]; Resveratrol 10 μM to 50 μM, 24 h): gradual and considerable decrease | PGC-1α protein band densities (PGC-1α [1]; Resveratrol 0.1 and 1 μM, 24 h, vs untreated cells): slight increase | increase in normalized PGC-1α protein expression (PGC-1α [1]; Resveratrol up to 1 μM, vs untreated cells): 5% | normalized PGC-1α expression (PGC-1α [2]; 10 μM Resveratrol): statistically significant (p<0.01) increase | PGC-1α expression (PGC-1α [2]; 50 μM Resveratrol): considerable (p=0.07) decrease | normalized PGC-1α expression (densitometry) (PGC-1α [2]; Resveratrol 0.1 to 50 μM): concentration-dependent increase in PGC-1α expression
